In US20150126467A1, “USE OF ALGINATE OLIGOMERS TO ENHANCE THE EFFECTS OF ANTIFUNGAL AGENTS” (AlgiIPharma AS, priority 2011, published 2015):
Converted amounts (≈) assume the structure as drawn.

Assays:
[1] = tested on: C. lusitaniae 994/01(2) (candidosis); assay: Standard MIC testing in RPMI medium (Example 3); type: cell-based, Candida lusitaniae; details: 48 h
Description: Following retrieval from −80° C. storage, fungal colonies were grown on blood agar with 5% sheep blood and were used to inoculate tryptone soya broth (TSB) for overnight growth. […] Fungal cultures at 0.5 McFarland standard were diluted ten-fold in RPMI medium and 5 μl added to the media containing wells of the microtiter plates. Plates were wrapped in parafilm and incubated at 34° C. for 48 hours. MIC values were determined as the lowest concentration at which there was no visible growth.

[2] = tested on: various Candida species and strains; assay: Robotic MIC assay, summary over all strains (Example 2); type: cell-based; details: all species and strains tested
Description: The robotic assay described in Example 1 was employed in this Example. Strains were grown in Mueller-Hinton broth (LAB114 from Lab M Limited) and MIC values (μg ml-1) were determined for each antifungal after incubation for 48 h in the presence of 0, 2, 6 and 10% OligoG CF-5/20 G-fragments. […] OligoG CF-5/20 G-fragments were provided by AlgiPharma AS, Norway.
Candida strains used were as follows: • C. albicans CCUG 39343 (strain from culture collection) • C. parapsillosis ATCC 22019T (strain from culture collection) • C. krusei 141/03 (candidosis) • C. krusei 249/03(2) (ulceration) • C. lusitaniae 994/01(2) (candidosis) • C. tropicalis 12 (vaginal) • C. tropicalis 75 (vaginal) • C. tropicalis 519468 (urinary) • C. tropicalis 544123 (urinary) • C. tropicalis 250/03 (candidosis) • C. tropicalis AG1 (oral) • C. tropicalis T2.2 (oral)

SMILES	Minimum Inhibitory Concentration (MIC) ([1]; 0% OligoG) [µg/mL]	Minimum Inhibitory Concentration (MIC) ([1]; 6% OligoG) [µg/mL]	Minimum Inhibitory Concentration (MIC) ([1]; 10% OligoG) [µg/mL]	MIC ([1]; Clavispora lusitaniae, 2% OligoG, read-out: Minimum Inhibitory Concentration (MIC)) [µg/mL]	effect of addition of OligoG CF-5/20 on MIC values [2]
OC(Cn1cncn1)(Cn1cncn1)c1ccc(F)cc1F [Fluconazole, fluconazole]	2	2	2	2 (≈ 6.53 µM)	
C[C@@H]1[C@H](O)[C@@H](C)/C=C/C=C/CC/C=C/C=C/C=C/C=C/C(O[C@H]2O[C@H](C)[C@@H](O)[C@H](N)[C@@H]2O)CC2O[C@](O)(CC(O)C(O)CCC(O)CC(O)CC(O)CC(=O)O[C@H]1C)CC(O)C2C(=O)O (some centres unmarked) [Nystatin, nystatin]					reduced
